These are literature values, as cited in PMC10572662 (International Journal of Molecular Sciences, 2023).

Where only a bound is given, the exact number is not on record here.

On the set-up of this data set: method as in PMID 17601630. To be noted: native βCD and commercial βCD derivatives.

2-hydroxypropyl-βCD: the water solubility was 600 mg/mL.
For O-methyl-βCD, the water solubility was over 500 mg/mL.
Regarding sulfobutylether-βCD, the water solubility is over 500 mg/mL.
